{"source": "patent US8420777B2", "about": "“Compounds that inhibit Hsp90 protein-protein interactions with IAP proteins” (University of Massachusetts, priority 2004, dated 2013)", "key": {"[1]": {"system": "normal lung fibroblast LU18 cells", "test": "Trypan blue exclusion in normal cells", "assay_type": "cell-based", "details": "150 μM, 24 hours"}, "PC3 tumors": {"system": "PC3 tumors", "test": "Peptide accumulation within the tumor mass, fluorescence microscopy", "assay_type": "in vivo, SCID/beige mice", "details": "intraperitoneally, one hour after administration", "procedure": "To determine whether the survivin peptidomimetic accumulates intracellularly in vivo, animals carrying flank PC3 tumors were injected intraperitoneally with saline, or the cell-permeable retro-inverso K79-L87 survivin peptide P3. One hour after administration, the animals were sacrificed, and the tumors were carefully excised and analyzed for peptide accumulation within the tumor mass by fluorescence microscopy."}, "Hsp90": {"system": "Hsp90", "test": "Affinity chromatography of Raji cell extracts on Survivin peptide column", "assay_type": "binding", "details": "eluate by Western blotting", "from_the_text": "(§1) A Survivin Ile^74-Leu^87 peptide (SEQ ID NO:4) containing a binding site for Hsp90 was immobilized onto a Sulfolink™ Coupling Gel (Pierce, Rockport, Ill.), and used to fractionate Raji cell extracts. Proteins were identified in the flow trough (FT) or eluate (E) by Western blotting with the indicated antibodies. Hsp90 and Hsp70 clearly bound the Survivin peptide including residues Ile^74-Leu^87. The anti-Hsp70 antibodies were obtained from Abcam, Cambridge, Mass. (cat. No. ab6535)."}, "Hsp 27": {"target": "T1, Hsp 27 (Homo sapiens, UniProt P04792)", "T1 construct": "used to fractionate Raji cell extracts; endogenous in cells; host or cells: Raji B lymphoma cells", "T1 sequence (P04792 whole entry)": "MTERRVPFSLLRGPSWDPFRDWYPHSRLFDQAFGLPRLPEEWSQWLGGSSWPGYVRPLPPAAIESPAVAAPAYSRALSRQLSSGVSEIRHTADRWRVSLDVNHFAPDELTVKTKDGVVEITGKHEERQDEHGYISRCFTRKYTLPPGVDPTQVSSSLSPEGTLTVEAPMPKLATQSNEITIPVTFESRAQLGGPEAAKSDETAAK", "test": "Affinity chromatography of Raji cell extracts on Survivin peptide column", "assay_type": "binding", "from_the_text": "as §1"}, "Hsp70": {"system": "Hsp70", "test": "Affinity chromatography of Raji cell extracts on Survivin peptide column", "assay_type": "binding", "details": "eluate by Western blotting", "from_the_text": "as §1"}}, "note": "Ends that are not written are not given here.", "data": [{"molecule": "CSCC[C@@H](NC(=O)[C@@H](CCCCN)NC(=O)[C@@H](Cc1c[nH]c2ccccc12)NC(=O)[C@@H](CCCCN)NC(=O)[C@@H](CCCCN)NC(=O)CCCCCNC(=O)CCCC[C@@H]1SC[C@@H]2NC(=O)N[C@@H]21)C(=O)N[C@H](CCCNC(=N)N)C(=O)N[C@H](CCCNC(=N)N)C(=O)N[C@H](CC(N)=O)C(=O)N[C@H](CCC(N)=O)C(=O)N[C@H](Cc1ccccc1)C(=O)N[C@H](Cc1c[nH]c2ccccc12)C(=O)N[C@@H](C(=O)N[C@H](CCCCN)C(=O)N[C@@H](C(=O)N[C@H](CCC(N)=O)C(=O)N[C@H](CCCNC(=N)N)C(=O)N[C@H](CC(C)C)C(=O)N[C@H](Cc1ccccc1)C(=O)N[C@H](C)C(=O)N[C@H](CS)C(=O)NCC(=O)N[C@H](CO)C(=O)N[C@H](CO)C(=O)N[C@H](Cc1c[nH]cn1)C(=O)N[C@H](CCCCN)C(N)=O)C(C)C)C(C)C", "note": "[P3]", "values": [{"measurement": "viability of normal cells (trypan blue exclusion)", "setting": "[1]", "result": "neither the Survivin P3 nor the control P4 peptide resulted in decreased viability"}, {"measurement": "intracellular accumulation in tumor cells", "setting": "PC3 tumors", "result": "showed intracellular fluorescence"}]}, {"molecule": "IDDHKKHSSGCAFL [SEQ ID NO:4]", "values": [{"measurement": "Hsp90 binding to peptide column", "setting": "Hsp90", "result": "clearly bound"}, {"measurement": "Hsp 27 binding to peptide column", "setting": "Hsp 27", "result": "did not bind"}, {"measurement": "Hsp70 binding to peptide column", "setting": "Hsp70", "result": "clearly bound"}]}]}
